Source: patent publication US5405760A, “Process for producing recombinant McrBC endonuclease and cleavage of methylated DNA” (New England Biolabs, Inc., priority 1992, dated 1995)
Where two headings read alike, the source gives them in different places.

How the values were obtained:
McrBC = biological target: T1, McrBC (Escherichia coli, UniProt P15005); experiment: McrBC cleavage of pBR322.AluI with titration of nucleotides; type: biochemical; conditions: for inhibition of McrBC reaction: in the presence of GTP (0.5 mM), analogue 5.0 to 0.04 mM; for support of cleavage of the substrate by nucleotide: nucleotides tested at 1 mM
T1 construct: made in house; host or cells: Escherichia coli BL21(DE3)/pER273 (McrBL) and BL21(DE3)/pER276 (McrC)
T1 sequence (P15005 1-459): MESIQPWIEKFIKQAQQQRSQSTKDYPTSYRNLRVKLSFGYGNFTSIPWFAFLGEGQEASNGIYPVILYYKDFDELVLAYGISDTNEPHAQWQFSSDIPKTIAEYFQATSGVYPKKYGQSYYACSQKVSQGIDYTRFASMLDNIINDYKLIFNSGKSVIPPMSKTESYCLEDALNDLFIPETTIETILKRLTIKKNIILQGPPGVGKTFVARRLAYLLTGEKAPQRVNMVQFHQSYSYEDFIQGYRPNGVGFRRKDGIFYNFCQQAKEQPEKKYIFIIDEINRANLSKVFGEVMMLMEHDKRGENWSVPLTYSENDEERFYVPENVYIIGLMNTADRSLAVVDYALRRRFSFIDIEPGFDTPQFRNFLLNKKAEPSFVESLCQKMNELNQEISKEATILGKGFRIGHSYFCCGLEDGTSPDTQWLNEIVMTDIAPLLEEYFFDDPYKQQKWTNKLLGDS
Description: The optimal buffer composition for both components of McrBC tested was 10 mM Tris-Cl, 10 mM magnesium chloride, 1 mM GTP (pH 7.5 at 25° C.).
McrBC activity depends on the presence of GTP. […] McrBL Fraction IV and McrC Fraction Va (EXAMPLE I), were used, such that each reaction in each series contained 8 pmol McrBL, 8 pmol of McrC (combined activity on the same day of 5 units) and 0.07 pmol of pBR322.AluI in the presence of decreasing concentrations of nucleotides. Mixtures were made up without McrBL and without nucleotide; nucleotide was added to the first tube in the series; the samples were serially diluted in a manner similar to that described in EXAMPLE I and II; and reactions were begun by addition of McrBL and transfer to 37° C.

[1] = Properties of the McrBC cleavage reaction (pH, ratio of components); type: biochemical; conditions: higher or lower ratios reduce cleavage activity
Excerpt: (a) pH optimum: Activity is detectable when the pH of the reaction is lowered to about 5.8.
Higher or lower ratios reduce cleavage activity.

[2] = test system: McrBC (chromosomal wild-type operon) (Escherichia coli K-12); experiment: cell_activity; conditions: methylated by M.HaeII in vivo; in vivo restriction; abolished by McrBS plasmid
[3] = pH 7.5, read-out: relative activity

Molecule: Nc1ncnc2c1ncn2[C@@H]1O[C@H](COP(=O)(O)OP(=O)(O)NP(=O)(O)O)[C@@H](O)[C@H]1O [AMP-PNP]
- inhibition of McrBC reaction (McrBC): did not inhibit McrBC
- inhibition of McrBC at high concentrations (McrBC; near 10 mM): partial inhibition

Molecule: Nc1ncnc2c1ncn2[C@@H]1O[C@H](COP(=O)(O)OP(=O)(O)OP(O)(O)=S)[C@@H](O)[C@H]1O [ATP-gamma-S]
- inhibition of McrBC reaction (McrBC): did not inhibit the enzyme

Molecule: Nc1ncnc2c1ncn2[C@@H]1O[C@H](COP(=O)(O)OP(=O)(O)OP(=O)(O)O)[C@@H](O)[C@H]1O [ATP]
- concentration at which inhibition of McrBC activity began (McrBC; 0.5 mM GTP (equimolar)): 0.5 mM
- inhibition of McrBC reaction (McrBC): inhibited the reaction
- activity at 620 µM (McrBC; [3]): 25%
- activity at 1250 µM (McrBC; [3]): < 10%
- activity at 2500 µM (McrBC; [3]): < 1%

Molecule: Nc1nc2c(ncn2[C@@H]2O[C@H](COP(=O)(O)OP(=O)(O)O)[C@@H](O)[C@H]2O)c(=O)[nH]1 [GDP]
- support of cleavage of the substrate by nucleotide (McrBC): Neither GDP or GMP supported cleavage

Molecule: Nc1nc2c(ncn2[C@@H]2O[C@H](COP(=O)(O)OP(=O)(O)NP(=O)(O)O)[C@@H](O)[C@H]2O)c(=O)[nH]1 [GMP-PNP]
- inhibition of the GTP-supported reaction (McrBC; 5 mM analogue, 0.5 mM GTP): partial inhibition
- activity at 1250 µM (McrBC; pH 7.5, 0.5 mM GTP and 1.25 mM GMP-PNP, read-out: relative activity): 50%
- activity at 5000 µM (McrBC; pH 7.5, 0.5 mM GTP and 5 mM GMP-PNP, read-out: relative activity): < 10%

Molecule: Nc1nc2c(ncn2[C@@H]2O[C@H](COP(=O)(O)O)[C@@H](O)[C@H]2O)c(=O)[nH]1 [GMP]
- support of cleavage of the substrate by nucleotide (McrBC): Neither GDP or GMP supported cleavage

Molecule: Nc1nc2c(ncn2[C@@H]2O[C@H](COP(=O)(O)OP(=O)(O)OP(O)(O)=S)[C@@H](O)[C@H]2O)c(=O)[nH]1 [GTP-gamma-S]
- relative activity (McrBC; 0.5 mM GTP and as little as 0.04 mM GTP-gamma-S): no activity was detectable
- inhibition of McrBC reaction (McrBC): completely inhibit

Molecule: Nc1nc2c(ncn2[C@@H]2O[C@H](COP(=O)(O)OP(=O)(O)OP(=O)(O)O)[C@@H](O)[C@H]2O)c(=O)[nH]1 [GTP]
- activity at 620 µM (McrBC; 0.62 mM GTP, 10 mM Tris-Cl, 10 mM magnesium chloride, pH 7.5, read-out: relative activity): 100%
- support of the reaction by GTP alone (McrBC; 2.5 mM GTP): supported the reaction normally
- effect of high levels of GTP on the enzyme (McrBC; 5 mM GTP): inhibit the enzyme
- GTP concentration at which cleavage can be detected (McrBC; lane h, lowest concentration): 40 nM
- activity at 40 µM (McrBC; pH 7.5, 0.04 mM GTP, same buffer, read-out: relative activity): ≤ 10%
- activity at 310 µM (McrBC; pH 7.5, 0.31 mM GTP, same buffer, read-out: relative activity): 50%

Molecule: McrB: large polypeptide product of the mcrB gene, component of McrBC
- Optimal ratio of McrB to McrC [1]: between one and ten molecules of McrB per molecule of McrC

Molecule: phage lambda modified by M.HaeII
- activity (fold reduction in plaques) [2]: 33

B1: McrC: component of McrBC endonuclease, product of the mcrC gene (protein, UniProt P15006 1-348, looked up)
Type IV methyl-directed …: MEQPVIPVRNIYYMLTYAWGYLQEIKQANLEAIPGNNLLDILGYVLNKGVLQLSRRGLELDYNPNTEIIPGIKGRIEFAKTIRGFHLNHGKTVSTFDMLNEDTLANRIIKSTLAILIKHEKLNSTIRDEARSLYRKLPGISTLHLTPQHFSYLNGGKNTRYYKFVISVCKFIVNNSIPGQNKGHYRFYDFERNEKEMSLLYQKFLYEFCRRELTSANTTRSYLKWDASSISDQSLNLLPRMETDITIRSSEKILIVDAKYYKSIFSRRMGTEKFHSQNLYQLMNYLWSLKPENGENIGGLLIYPHVDTAVKHRYKINGFDIGLCTVNLGQEWPCIHQELLDIFDEYLK
- Optimal ratio of McrC to sites [1]: between one and six molecules of McrC per cleavable site
